Laboratory results: patent US5516797A, “Immunosuppressive compounds” (Vertex Pharmaceuticals, Incorporated, priority 1994, dated 1996)

Legend:
[1] = test system: PBLs stimulated with JVM human viral transformed B lymphoblastoid cells; test: MLR bioassay JVM: inhibition of proliferation in mixed lymphocyte reaction; format: cell-based; conditions: Lymphoblastoid cell, pulsed on day 6, harvested 24 h later
Method: (§1) LB and JVMhuman viraltransformed B lymphoblastoid cell lines stimulated t
(§2) proliferate in a mixed lymphocyte reaction (MLR). The compounds are
(§3) evaluated on their ability to inhibit this proliferation.
(§4) Fresh peripheral blood lymphocytes (PBLs) from LeukoPak cells or whole blood from random normal blood donors (tested HIV-negative and hepatitis negative) are isolated and separated by density centrifugation over Histopaque 1077 (Sigma Chemical Co., St. Louis, Mo.). The murine CTLL cytotoxic T cell line and the human Jurkat T cell line are from ATCC (CTLL-2 ATCC TIB214, JURKAT CLONE E6-1 ATCC TIBl52). The human allogeneic B cell lines used for activation of the fresh PBLs are EBV-transformed lymphocytes from normal healthy adult donors with two completely different HLAhaplotypes. All cell lines were routinely tested for the presence of Mycolasma contamination using the GibcoMycotect test kit and are Mycolasma-free. Culture medium consksts of RPMI 1640 (Gibco, Grand Island, N.Y.) containing penicillin (50 U/ml) and streptomycin (50 μg/ml), L-glutamine 2 mM, 2 mercaptoethanol (5×10^-5), 10% heat-inactivated FCS and 10 mM HEPES.
(§5) All chemical stocks were dissolved in DMSO.
(§6) MLR Bioassays ("LB" and "JVM")
(§7) Antigen activated proliferation of PBLs in a primary mixed lymphocyte reaction was assessed in the presence or absence of different concentrations of tested compounds and control drugs. 5×10^4 fresh PBLs were stimulated with 5×10^3 of Mitomycin C treated-allogeneic EBV-transformed β-lymphoglastoid cells, IB and JVM, in a final volume of 200 μl per well in 96-well round-bottomed plates (Mishell, B. B. and S. M. Shiigi, Selected Methods in Cellular Immunology W. H. Freeman and Co., San Francisco, Calif. (1980); Nelson, P. A. et al., Transplantation 50:286 (1990)). Cultures were pulsed on day 6, harvested 24 h later and counted as in previous section.

[2] = test system: PBLs stimulated with LB human viral transformed B lymphoblastoid cells; test: MLR bioassay LB: inhibition of proliferation in mixed lymphocyte reaction; format: cell-based; conditions: Lymphoblastoid cell, pulsed on day 6, harvested 24 h later
Method: as §1, §2, §3, §4, §5, §6, §7

[3] = molecular target: T1, FK-506 binding protein (FKBP) (Homo sapiens, UniProt P62942); test: Competitive binding to FKBP against [3H]dihydro-FK-506 (apparent Kd); conditions: competition with [3H]dihydro-FK-506
T1 sequence (P62942 whole entry): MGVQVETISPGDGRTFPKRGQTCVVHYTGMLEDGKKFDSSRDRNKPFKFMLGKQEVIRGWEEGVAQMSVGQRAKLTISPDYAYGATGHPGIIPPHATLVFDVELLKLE

[4] = test system: human peripheral blood lymphocytes; test: Mitogenesis assay PMA: inhibition of proliferation of human PBLs; format: cell-based; conditions: Lymphocyte, PMA (10 ng/ml) plus ionomycin (250 ng/ml), 48 h incubation
Method: (§8) PMA and OKT3mitogens used to stimulate proliferation of human peripheral
(§9) blood lymphocytes (PBC). Compounds are evaluated on their ability to
as §4, §5
(§10) Mitogenesis Assays ("PMA" and "OKT3")
(§11) After 48 h incubation (37° C., 5% CO2), cells were pulsed with 1 μCi of ^3 H-thymidine, harvested 24 h later with a Tom Tek cell harvester, and counted in LKB β-scintillation counter.

[5] = test system: human peripheral blood lymphocytes; test: Mitogenesis assay OKT3: inhibition of proliferation of human PBLs; format: cell-based; conditions: Lymphocyte, OKT3 (10^-4 dilution final), 48 h incubation
Method: as §8, §9, §4, §5, §10, §11

[6] = molecular target: T1, FK-506 binding protein (FKBP); test: Inhibition of PPIase (rotamase) enzyme activity of FKBP (apparent Ki); format: biochemical; conditions: substrate N-succinylAla-Ala-Pro-Phe-p-nitroanilide, chymotrypsin-coupled
Source text: The inhibition of the PPIase (rotamase) enzyme activity of the FKBP (apparent "Ki" values) can also be measured according to the methods described by either Harding, M. W. et al., Nature 341:758-760 (1989) or Siekierka, J. J. et al., Nature 341:755-757 (1989). The cis-trans isomerization of the proline-alanine peptide bond in a model substrate, N-succinylAla-Ala-Pro-Phe-p-nitroanilide, is monitored spectrophotometrically in a coupled assay with chymotrypsin, which releases 4-nitroanilide from the trans form of the substrate. Fischer, G. et al., Nature 337:476-478 (1989). The inhibitory effect of the addition of different concentrations of inhibitor on the extent of the reaction is determined, and analysis of the change in first order rate constant as a function of inhibitor concentration yields an estimate of the apparent Ki value.

In the case of COc1cc(C(=O)C(=O)N2CCCC[C@H]2C(=O)OCCCCCCC2CCCCC2)cc(OC)c1OC [Compound 72], the IC50 [1] is reported as greater than 10 µM, the IC50 [2] is reported as greater than 10 µM and the Kd [3] is reported as 0.5 µM. The IC50 [4] was 9 µM, the IC50 [5] was greater than 10 µM and the Ki [6] was 0.05 µM.
With COc1cccc(C(=O)C(=O)N2CCCC[C@H]2C(=O)OCc2ccccc2)c1 [Compound 9] the IC50 [1] was greater than 10 µM, the IC50 [2] was greater than 10 µM and the Kd [3] was greater than 1.3 µM. For the same compound, the IC50 [4] was greater than 10 µM, the IC50 [5] was 6.5 µM and the Ki [6] was 0.3 µM.
Compound O=C(OCc1ccccc1)[C@@H]1CCCCN1C(=O)C(=O)C1(O)CCCCC1 [Compound 46] has an IC50 [1] greater than 10 µM, an IC50 [2] greater than 10 µM and a Kd [3] of 2 µM. It also gave an IC50 [4] greater than 10 µM, an IC50 [5] greater than 10 µM and a Ki [6] of 1 µM.
COc1cc(C(=O)C(=O)N2CCCC[C@H]2C(=O)OCCCc2cn(C=O)c3ccccc23)cc(OC)c1OC [Compound 93] gave an IC50 [1] of 8.7 µM, an IC50 [2] of 10 µM and a Kd [3] of 0.06 µM. The IC50 [4] was 6 µM, the IC50 [5] was 7 µM and the Ki [6] was 0.015 µM.
COc1cc(C(=O)C(=O)N2CCCC[C@H]2C(=O)OCCCCc2c[nH]c3ccccc23)cc(OC)c1OC [Compound 94] was tested, and the IC50 [1] was 7 µM, the IC50 [2] was greater than 10 µM and the Kd [3] was 0.05 µM. For the same compound, the IC50 [4] was 5 µM, the IC50 [5] was 5.5 µM and the Ki [6] was 0.016 µM.
In the case of O=C(C(=O)N1CCCC[C@H]1C(=O)OCc1ccccc1)c1ccc([N+](=O)[O-])cc1 [Compound 16], the IC50 [1] is reported as greater than 10 µM, the IC50 [2] is reported as greater than 10 µM and the Kd [3] is reported as 100 µM. The IC50 [4] was greater than 10 µM, the IC50 [5] was greater than 10 µM and the Ki [6] was 160 µM.
O=C(C(=O)N1CCCC[C@H]1C(=O)OCc1ccccc1)C1CCCCC1 [Compound 40] gave an IC50 [1] greater than 10 µM, an IC50 [2] greater than 10 µM and a Kd [3] of 3 µM. The IC50 [4] was 7 µM, the IC50 [5] was 1 µM and the Ki [6] was 1.3 µM.
Work on COc1ccc(CCCCOC(=O)[C@@H]2CCCCN2C(=O)C(=O)c2cc(OC)c(OC)c(OC)c2)cc1 [Compound 85] yielded an IC50 [1] of 10 µM, an IC50 [2] of 7 µM and a Kd [3] of 0.049 µM. It also gave an IC50 [4] of 4.5 µM and an IC50 [5] of 4.5 µM.
For C=CCOC(=O)Nc1ccc(CCCOC(=O)[C@@H]2CCCCN2C(=O)C(=O)c2cc(OC)c(OC)c(OC)c2)cc1 [Compound 88], the IC50 [1] was 4.5 µM, the IC50 [2] was 2.5 µM and the Kd [3] was 0.07 µM. The IC50 [4] was 2.2 µM, the IC50 [5] was 2.2 µM and the Ki [6] was 0.011 µM.
In the case of O=C(C(=O)N1CCCC[C@H]1C(=O)OCCCCc1ccccc1)c1cccc(I)c1 [Compound 82], the IC50 [1] is reported as greater than 10 µM, the IC50 [2] is reported as greater than 10 µM and the Kd [3] is reported as 0.2 µM. For the same compound, the IC50 [4] was 10 µM, the IC50 [5] was greater than 10 µM and the Ki [6] was 0.13 µM.
For O=C(C(=O)N1CCCC[C@H]1C(=O)OCc1ccccc1)c1ccccn1 [Compound 17], the Kd [3] was greater than 1000 µM and the Ki [6] was 130 µM.
O=C(C(=O)N1CCCC[C@H]1C(=O)Oc1ccc2ccccc2c1)c1ccccc1 [Compound 6] was tested, and the Kd [3] was 1 µM and the Ki [6] was 7 µM.
For CCC(=O)C(=O)N1CCC[C@H]1C(=O)OCc1ccccc1 [Compound 41], the Kd [3] was greater than 300 µM and the Ki [6] was 400 µM.
Work on COc1cc(C(=O)C(=O)N2CCCC[C@H]2C(=O)OCc2ccccc2)cc(OC)c1OC [Compound 13] yielded an IC50 [1] greater than 10 µM, an IC50 [2] greater than 10 µM and a Kd [3] of 2 µM. For the same compound, the IC50 [4] was greater than 10 µM, the IC50 [5] was 5.9 µM and the Ki [6] was 0.1 µM.
O=C(C(=O)N1CCCC[C@H]1C(=O)OCc1ccccc1)c1cccs1 [Compound 22] was tested, and the IC50 [1] was greater than 10 µM, the IC50 [2] was greater than 10 µM and the Kd [3] was 4 µM. It also gave an IC50 [4] greater than 10 µM, an IC50 [5] greater than 10 µM and a Ki [6] of 0.8 µM.
O=C(C(=O)N1CCCC[C@H]1C(=O)OCCCCc1ccccc1)c1cccc(-c2ccccc2)c1 [Compound 96] gave an IC50 [1] greater than 10 µM, an IC50 [2] greater than 10 µM and a Kd [3] of 0.033 µM. It also gave an IC50 [4] greater than 10 µM, an IC50 [5] greater than 10 µM and a Ki [6] of 0.04 µM.
Work on O=C(C(=O)N1CCCC[C@H]1C(=O)OCc1cccc(Oc2ccccc2)c1)c1ccccc1 [Compound 62] yielded an IC50 [1] greater than 10 µM, an IC50 [2] greater than 10 µM and a Kd [3] of 0.15 µM. For the same compound, the IC50 [4] was 6.5 µM, the IC50 [5] was greater than 10 µM and the Ki [6] was 0.09 µM.
COC(=O)C(=O)N1CCC[C@H]1C(=O)OC(C)(C)C [Compound 29] gave a Kd [3] greater than 500 µM and a Ki [6] of 600 µM.
